Data published in a compilation of properties of binary mixtures (doi:10.1016/j.molliq.2008.06.014).

Assay: xn = mol fraction of the nth substance listed
Conditions: 101 kPa

CN(C)CCO + CCCC[n+]1ccn(C)c1.F[P-](F)(F)(F)(F)F
Conditions	electrical conductivity [S/m]	viscosity [mPa·s]
288.15 K, x1 = 0.1221	0.12	213
288.15 K, x1 = 0.2143	0.14	159
288.15 K, x1 = 0.4405	–	81
288.15 K, x1 = 0.4637	0.179	–
288.15 K, x1 = 0.605	0.206	46
288.15 K, x1 = 0.9128	0.135	9.5
288.15 K, x1 = 1	0.082	5
293.15 K, x1 = 0.1221	0.161	157
293.15 K, x1 = 0.3182	0.203	88
293.15 K, x1 = 0.3764	0.226	–
293.15 K, x1 = 0.605	0.264	35
293.15 K, x1 = 0.709	0.266	23
293.15 K, x1 = 0.9128	0.16	8
293.15 K, x1 = 1	0.091	4.3
298.15 K, x1 = 0.2143	0.242	88
298.15 K, x1 = 0.3182	0.263	66
298.15 K, x1 = 0.3764	0.285	–
298.15 K, x1 = 0.4405	–	46
298.15 K, x1 = 0.5166	0.322	36
298.15 K, x1 = 0.605	0.333	27
298.15 K, x1 = 0.709	0.332	18.2
298.15 K, x1 = 0.8063	0.297	11.8
303.15 K, x1 = 0.1221	0.272	88
303.15 K, x1 = 0.2143	0.311	68
303.15 K, x1 = 0.3182	0.341	51
303.15 K, x1 = 0.4637	0.389	–
303.15 K, x1 = 0.5166	0.403	28
303.15 K, x1 = 0.605	0.414	21.4
303.15 K, x1 = 0.709	0.404	14.7
303.15 K, x1 = 0.9128	0.218	5.6
303.15 K, x1 = 1	0.11	3.2
308.15 K, x1 = 0.1221	0.348	67
308.15 K, x1 = 0.2143	0.396	52
308.15 K, x1 = 0.3182	0.431	39
308.15 K, x1 = 0.3764	0.461	–
308.15 K, x1 = 0.5166	0.502	22.4
308.15 K, x1 = 0.605	0.51	17
308.15 K, x1 = 0.709	0.49	11.9
308.15 K, x1 = 0.8063	0.423	8
308.15 K, x1 = 0.9128	0.252	4.8
308.15 K, x1 = 1	0.12	2.9
313.15 K, x1 = 0.1221	0.434	53
313.15 K, x1 = 0.2143	0.491	41
313.15 K, x1 = 0.3182	0.531	31
313.15 K, x1 = 0.3764	0.564	–
313.15 K, x1 = 0.4405	–	22.6
313.15 K, x1 = 0.4637	0.589	–
313.15 K, x1 = 0.5166	0.606	18.1
313.15 K, x1 = 0.709	0.583	9.8
313.15 K, x1 = 0.8063	0.494	6.7
313.15 K, x1 = 0.9128	0.288	4.1
313.15 K, x1 = 1	0.131	2.5
318.15 K, x1 = 0.1221	0.531	42
318.15 K, x1 = 0.2143	0.599	33
318.15 K, x1 = 0.3182	0.648	25
318.15 K, x1 = 0.4405	–	18.6
318.15 K, x1 = 0.4637	0.713	–
318.15 K, x1 = 0.5166	0.727	14.9
318.15 K, x1 = 0.605	0.726	11.6
318.15 K, x1 = 0.709	0.682	8.3
318.15 K, x1 = 0.8063	0.571	5.7
318.15 K, x1 = 0.9128	0.326	3.6
318.15 K, x1 = 1	0.141	2.27
323.15 K, x1 = 0.1221	0.63	35
323.15 K, x1 = 0.2143	0.712	28
323.15 K, x1 = 0.3182	0.767	21.2
323.15 K, x1 = 0.4405	–	15.7
323.15 K, x1 = 0.4637	0.834	–
323.15 K, x1 = 0.605	0.841	9.9
323.15 K, x1 = 0.709	0.784	7.1
323.15 K, x1 = 0.8063	0.648	5
323.15 K, x1 = 0.9128	0.363	3.2

NCCO + CCCC[n+]1ccn(C)c1.F[P-](F)(F)(F)(F)F
x1 = 1
Conditions	electrical conductivity [S/m]	viscosity [mPa·s]
298.15 K	0.0023	18.6
303.15 K	0.0027	15
308.15 K	0.0032	11.9
313.15 K	0.0036	9.9
323.15 K	0.0069	7

CCCC[n+]1ccn(C)c1.F[P-](F)(F)(F)(F)F + CN(C)CCO
x2 = 0
Conditions	electrical conductivity [S/m]	viscosity [mPa·s]
288.15 K	0.105	350
293.15 K	0.142	250
298.15 K	0.185	182
303.15 K	0.24	136
308.15 K	0.309	102
313.15 K	0.384	79
318.15 K	0.421	62
323.15 K	0.504	48

CCCC[n+]1ccn(C)c1.F[P-](F)(F)(F)(F)F + NCCO
Conditions	electrical conductivity [S/m]	viscosity [mPa·s]
288.15 K, x2 = 0	0.105	350
288.15 K, x2 = 0.1185	0.124	220
288.15 K, x2 = 0.2113	0.144	172
288.15 K, x2 = 0.3052	0.165	141
288.15 K, x2 = 0.387	0.177	–
288.15 K, x2 = 0.4282	0.178	107
288.15 K, x2 = 0.4761	0.186	–
288.15 K, x2 = 0.4918	0.186	93
288.15 K, x2 = 0.5352	0.194	–
288.15 K, x2 = 0.5871	0.2	–
288.15 K, x2 = 0.6161	0.197	70
288.15 K, x2 = 0.6533	0.198	–
288.15 K, x2 = 0.6984	0.194	58
288.15 K, x2 = 0.9592	0.0794	–
293.15 K, x2 = 0	0.142	250
293.15 K, x2 = 0.1185	0.167	159
293.15 K, x2 = 0.2113	0.194	125
293.15 K, x2 = 0.4282	0.239	78
293.15 K, x2 = 0.4761	0.251	–
293.15 K, x2 = 0.4918	0.25	68
293.15 K, x2 = 0.6161	0.262	52
293.15 K, x2 = 0.6533	0.264	–
293.15 K, x2 = 0.6984	0.259	44
293.15 K, x2 = 0.8022	0.243	34
293.15 K, x2 = 0.9028	0.178	27
298.15 K, x2 = 0.1185	0.221	117
298.15 K, x2 = 0.387	0.309	–
298.15 K, x2 = 0.4282	0.312	59
298.15 K, x2 = 0.4761	0.329	–
298.15 K, x2 = 0.4918	0.325	52
298.15 K, x2 = 0.5871	0.347	–
298.15 K, x2 = 0.6161	0.34	39
298.15 K, x2 = 0.6533	0.346	–
298.15 K, x2 = 0.6984	0.34	33
298.15 K, x2 = 0.9028	0.226	21.3
298.15 K, x2 = 0.9592	0.131	–
303.15 K, x2 = 0	0.24	136
303.15 K, x2 = 0.1185	0.286	87
303.15 K, x2 = 0.2113	0.33	70
303.15 K, x2 = 0.3052	0.378	58
303.15 K, x2 = 0.387	0.397	–
303.15 K, x2 = 0.4282	0.4	45
303.15 K, x2 = 0.4761	0.424	–
303.15 K, x2 = 0.4918	0.415	39
303.15 K, x2 = 0.5871	0.445	–
303.15 K, x2 = 0.6161	0.432	30
303.15 K, x2 = 0.6533	0.441	–
303.15 K, x2 = 0.8022	0.397	20.8
303.15 K, x2 = 0.9028	0.283	16.9
303.15 K, x2 = 0.9592	0.164	–
308.15 K, x2 = 0	0.309	102
308.15 K, x2 = 0.1185	0.366	67
308.15 K, x2 = 0.2113	0.422	55
308.15 K, x2 = 0.3052	0.486	44
308.15 K, x2 = 0.4918	0.529	30
308.15 K, x2 = 0.5352	0.551	–
308.15 K, x2 = 0.5871	0.565	–
308.15 K, x2 = 0.6161	0.55	23.6
308.15 K, x2 = 0.6533	0.561	–
308.15 K, x2 = 0.6984	0.552	20.2
308.15 K, x2 = 0.8022	0.495	16.3
308.15 K, x2 = 0.9028	0.351	13.5
308.15 K, x2 = 0.9592	0.204	–
313.15 K, x2 = 0	0.384	79
313.15 K, x2 = 0.1185	0.455	53
313.15 K, x2 = 0.2113	0.524	42
313.15 K, x2 = 0.387	0.627	–
313.15 K, x2 = 0.4282	0.635	27
313.15 K, x2 = 0.4918	0.665	24.4
313.15 K, x2 = 0.5871	0.698	–
313.15 K, x2 = 0.6161	0.676	18.8
313.15 K, x2 = 0.6533	0.693	–
313.15 K, x2 = 0.6984	0.675	16.3
313.15 K, x2 = 0.8022	0.607	13.1
313.15 K, x2 = 0.9028	0.426	11
318.15 K, x2 = 0	0.421	62
318.15 K, x2 = 0.1185	0.558	42
318.15 K, x2 = 0.2113	0.641	34
318.15 K, x2 = 0.387	0.766	–
318.15 K, x2 = 0.4761	0.813	–
318.15 K, x2 = 0.5352	0.825	–
318.15 K, x2 = 0.5871	0.846	–
318.15 K, x2 = 0.6161	0.82	15.3
318.15 K, x2 = 0.6533	0.843	–
318.15 K, x2 = 0.6984	0.821	12.8
318.15 K, x2 = 0.8022	0.731	10.8
318.15 K, x2 = 0.9028	0.526	9.1
318.15 K, x2 = 0.9592	0.3	–
323.15 K, x2 = 0.1185	0.665	35
323.15 K, x2 = 0.2113	0.76	28
323.15 K, x2 = 0.387	0.915	–
323.15 K, x2 = 0.4282	0.918	18.3
323.15 K, x2 = 0.4918	0.945	16.1
323.15 K, x2 = 0.5871	1	–
323.15 K, x2 = 0.6161	0.971	12.8
323.15 K, x2 = 0.6533	0.999	–
323.15 K, x2 = 0.6984	0.972	11.1
323.15 K, x2 = 0.8022	0.861	9.1
323.15 K, x2 = 0.9028	0.619	7.7
323.15 K, x2 = 0.9592	0.351	–
